Data on 1 substance can be found in patent US20240226234A1, “WNT5A PEPTIDES FOR THE TREATMENT OF ACUTE M[…]” (W[…], priority 2021, published 2024).

No end group written: not given here. *: point of attachment. For = O=C*

The subject of assay [1] is K562 cells. Briefly: ROS production by flow cytometry, K562 cells. The class given is cell-based, human. The settings on record: 72 h; for ROS production (MFI): K562, 2D culture on HS5 stromal cells; for ROS production (mean fluorescence intensity): K562, monoculture. On the procedure:
(§1) A panel of human myeloid leukemia cell lines (HL60, K562, KG1a, THP1 and U937) and HS-5 mesenchymal stromal cells lineage were cultured in Roswell Park Memorial Institute medium-1640 (RPMI; Sigma) containing 10% Fetal Bovine Serum (Gibco), glutamine (2 mM; Sigma), penicillin (100 μg/mL; Sigma), streptomycin (100 μg/mL; Sigma), and amphotericin B (0.25 μg/mL; Gibco). The cells were maintained in a humidified atmosphere at 37° C. and 5% CO2 and the experiments were performed when they reached exponential growth. For the assays, cells were seeded on a 24-well plate and treated or not with Foxy-5 for 72 hours.
Cells treated with Foxy or with vehicle were collected and intracellular ROS generation was measured by flow cytometry following staining with DCFDA ([…]; Sigma). Acquisition of cells was performed on a FACScalibur flow cytometer (BD) and analysis was carried out using the FlowJo software.
Leukemia cell lines were treated for 72 h with Foxy-5, at doses of 50 and 100 μM, or vehicle, stained with DCFHA dye, and analyzed by flow cytometry.

The next assay concerns PI3K and MAPK pathways. Briefly: Western blot of PI3K and MAPK pathway proteins, U937 cells. The following applies: U937, Foxy-5 50 μM or 100 μM, 72 h. The class given is cell-based, human. How it is done:
Equal amounts of protein were resolved by sodium dodecyl sulphate-polyacrylamide gel electrophoresis and transferred onto nitrocellulose membranes (Millipore). Detection was carried out with the chemiluminescent substrate using an ECL Plus (GE-Healthcare). Monoclonal antibodies against P70S6K (sc-8418) and polyclonal antibodies against Actin (sc-1616), AKT1/2/3 (sc-8312), BAX (sc-493), BCL-XL (sc-8392), GAPDH (sc-32,233), p-AKT1/2/3 (sc-33,437) and p-P70S6K (sc-7984) were purchased from Santa Cruz Biotechnology. ERK1/2 ([pT185/Y187]; 44-680G) and ERK1/2 (44-654G) from Invitrogen. Quantitative blots were carried out using the UN-SCAN-IT densitometer software.
Based on the above results, the activity of proteins of PI3K and MAPK pathways were then investigated in a western blot. Briefly, U937 and K562 cells were seeded and treated with Foxy-5 (50 μM or 100 μM) or vehicle for 72 hours. Then, equal amounts of protein were used for total extracts followed by electrophoresis on 12% SDS polyacrylamide gels under reducing conditions, transferred to nitrocellulose membranes, blocked with 10% skimmed milk in TBS-0.1% Tween for 1 hour, stained with appropriate primary and secondary antibodies. The membranes were visualized with chemiluminescence using an ECL Plus (GE-Healthcare). Quantitative analyses of the optical intensities of the protein bands were determined with Un-Scan-It Gel 6.1 (Silk Scientific Inc.).

The subject of a further assay is U937 xenografts. Briefly: U937 xenograft mouse model, tumour growth. It is filed as in vivo. The settings on record: NOD/SCID mice, Foxy-5 40 μg/μL i.p. once every 2 days. An excerpt:
The control group received equal amounts of vehicle solution.

In another assay the test system is THP1 cells. As to the kind of experiment: Actin polymerization assay, THP1 cells. It is filed as cell-based, human. The settings on record: THP1, Foxy-5 100 μM 72 h. How it is done:
F-actin polymerization was analyzed in treated leukemic cell lines using AlexaFluor 633-labeled phalloidin (A22284, Invitrogen) before and after CXCL12 stimulation. The cells were stimulated with CXCL12 (300 ng/ml; Peprotech) in serum-free media at 37 °C for 30 and 120 seconds. The reaction was stopped by adding 3 volumes of paraformaldehyde (3.7%) at room temperature for 10 min, then washed and permeabilized on ice. Cells were stained with 633-phalloidin (2 mg/mL). Flow cytometric data were analyzed using a FACS flow cytometer (BD) followed by FlowJo software analysis. The F-actin content obtained were normalized calculating the ratio between each stimulated cells-mean fluorescence intensity (MFI) values and the nonstimulated cells MFI from the basal levels of the control cells and expressed as fold change.
Therefore, we performed a flow cytometry analysis to evaluate whether Foxy-5 treatment would be able to disrupt actin polymerization. Leukemia cell lines were treated with Foxy-5 (100 μM) or vehicle during 72 hours, stimulated with CXCL12 (300 ng/ml) for 30 or 120 seconds, and stained with […] for detection of actin polymerization by flow cytometry. […] Thus, a significant reduction of actin polymerization was shown after Foxy-5 treatment when compared to untreated cells after 30 seconds of CXCL12 induction (P<. 001).

Assay [2] relates to K562 cells. As to the kind of experiment: Autophagy assay (acridine orange), K562 cells. The class given is cell-based, human. The following applies: K562, 2D culture, 72 h. On the procedure:
as §1
(§2) Cells treated with Foxy or with vehicle were collected and acids vesicles were measured by flow cytometry following staining with Acridine Orange (0.01 mg/mL; Sigma). Acquisition of cells was performed on a FACScalibur flow cytometer (BD) and analysis was carried out using the FlowJo software 4.
(§3) As autophagy is required for sustaining leukemia cell growth by induction of ROS production, we measured the levels of acidic granule formation by flow cytometry after Foxy-5 or vehicle treatment. […]

A further assay relates to HL60 cells. As to the kind of experiment: Autophagy assay (acridine orange), HL60 cells. It is filed as cell-based, human. The settings on record: HL60, 2D culture, 72 h. On the procedure:
as §1, §2, §3

For “Foxy-5: Formylated hexapeptide fragment of WNT5A: MDGCEL (SEQ. ID. NO. 3) with methionine in position 1 as N-formyl methionine; WNT5A-mimicking compound (For-MDGCEL; listed as Homo sapiens)”, the “ROS production (MFI)” value in the assay with K562 cells [1] (Foxy-5 50 μM) was 126.00 (range 125.000-128.20) MFI; with K562 cells [1] (Foxy-5 100 μM) it was 98.25 (range 98.25-104.00) MFI. The “ROS production (mean fluorescence intensity)” value was 83.90 (range 75.80-88.40) MFI with K562 cells [1] (Foxy-5 50 μM) and 68.75 (range 64.40-72.75) MFI in the assay with K562 cells [1] (Foxy-5 100 μM). The “phosphorylation level of AKT compared to vehicle-treated cells” value in the assay on PI3K and MAPK pathways was “lower phosphorylation levels”. The “phosphorylation level of ERK compared to vehicle-treated cells” value in the assay with PI3K and MAPK pathways is “lower phosphorylation levels”. In addition, the “protein level of cyclin D1 compared to vehicle-treated cells” value in the assay with PI3K and MAPK pathways is listed as “reduced protein level”. Further, the “tumour volume (median)” value in the assay on U937 xenografts (9 days) is given as 469 mm^3. Moreover, in the assay on U937 xenografts (vs control group at day 9), the “inhibition of tumour growth” value was found to be 55.46%. The “inhibition of tumour weight” value with U937 xenografts (vs control group at day 9) was 45.51%. For the same substance, the “F-actin content following CXCL12 stimulation” value stood at 3.56 fold increase in the assay with THP1 cells (CXCL12 300 ng/ml for 30 seconds) and 1.59 fold in the assay with THP1 cells (CXCL12 300 ng/ml for 120 seconds). For the same substance, the “autophagy (acidic granule formation, acridine orange, average)” value in the assay on K562 cells [2] (Foxy-5 50 μM) is 21.32 (range 20.46-22.28) MFI; in the assay on K562 cells [2] (Foxy-5 100 μM) it was 19.80 (range 19.70-20.40) MFI; in the assay with HL60 cells (Foxy-5 50 μM) it was 10.04 (range 7.20-11.93) MFI; in the assay with HL60 cells (Foxy-5 100 μM), 6.60 (range 5.42-6.69) MFI.
